# In patent US8193160B2 (priority 2006, dated 2012):
# Experiments:
# [1] = system: Magnaporthe vegetative mycelia, wild type Guy11; assay: microbe, parasite or virus in culture; format: cell-based, Magnaporthe grisea; conditions: for MIC: Pyricularia oryzae, read-out: Minimum Inhibitory Concentration (MIC), Guy11
# wild type conidia = format: cell-based, Magnaporthe grisea
# wild type appressoria = format: cell-based, Magnaporthe grisea
# abc3Δ conidia = format: cell-based, Magnaporthe grisea
# ABC3 promoter = format: cell-based, Magnaporthe grisea
compound,measurement,setting,value
CCCCNC(=O)n1c(NC(=O)OC)nc2ccccc21 [Benomyl],MIC,[1],2 mg/L
C[C@H]1CCC/C=C/[C@@H]2C[C@H](O)C[C@H]2[C@H](O)/C=C/C(=O)O1 [Brefeldin A],"Minimum Inhibitory Concentration (MIC), Guy11",[1],40 mg/L
OC(Cn1cncn1)(Cn1cncn1)c1ccc(F)cc1F [Fluconazole],MIC,[1],2500 mg/L
CCC(C)n1ncn(-c2ccc(N3CCN(c4ccc(OCC5COC(Cn6cncn6)(c6ccc(Cl)cc6Cl)O5)cc4)CC3)cc2)c1=O (stereo not drawn) [Itraconazole],MIC,[1],2000 mg/L
"[Cl-].[K+] [KCl, potassium chloride]",reversal of defects associated with Valinomycin action,wild type conidia,failed to reverse
CCC(=C/[C@H](C)C/C=C/C(C)=C/[C@@H](C)C(=O)[C@@H](C)[C@H](O)[C@@H](C)C/C(C)=C/C(=O)O)/C=C/[C@@H]1OC(=O)C=C[C@@H]1C [Leptomycin B],"Minimum Inhibitory Concentration (MIC), Guy11",[1],0.0075 mg/L
CC1=CC(=O)c2ccccc2C1=O [Menadione],effect on host penetration compared to treatment with peroxide,wild type appressoria,slightly reduced effect
CC(C)[C@@H]1NC(=O)[C@H](C)OC(=O)[C@@H](C(C)C)NC(=O)[C@@H](C(C)C)OC(=O)[C@H](C(C)C)NC(=O)[C@H](C)OC(=O)[C@@H](C(C)C)NC(=O)[C@@H](C(C)C)OC(=O)[C@H](C(C)C)NC(=O)[C@H](C)OC(=O)[C@@H](C(C)C)NC(=O)[C@@H](C(C)C)OC1=O [Valinomycin],MIC,[1],20 mg/L
same,effect on conidia (germ tube emergence),abc3Δ conidia,complete blockage of conidial germ tube emergence
same,germ tube growth,abc3Δ conidia,inhibited
same,frequency of appressoria formation,wild type conidia,61±2%
same,germ tube growth,wild type conidia,could withstand elevated concentration
COc1ccc(CCN(C)CCCC(C#N)(c2ccc(OC)c(OC)c2)C(C)C)cc1OC (stereo not drawn) [Verapamil],decrease in penetration peg formation,wild type appressoria,≤ 74%
same,effect on germ tube emergence or growth,wild type appressoria,without affecting
OO [hydrogen peroxide],appressoria able to breach the host surface,wild type appressoria,36±2.8%
same,peroxide level that blocked germ tube emergence,wild type appressoria,exceeding 5 mM
same,ABC3 promoter driven destabilized-GFP fluorescence versus untreated control,ABC3 promoter,four fold higher
same,growth under oxidative stress,wild type Guy11 strain,unaffected
C[n+]1ccc(-c2cc[n+](C)cc2)cc1 [paraquat],effect on host penetration compared to treatment with peroxide,wild type appressoria,slightly reduced effect
Actinomycin D,"Minimum Inhibitory Concentration (MIC), Guy11",[1],15 mg/L
Gramicidin D,"Minimum Inhibitory Concentration (MIC), Guy11",[1],180 mg/L
